Source: PMC4339887, “Selective Sirt2 inhibition by ligand-induced rearrangement of the active site” (Nature Communications, 2015)
“Also recorded” adds a separate entry of the source.

Assays:
[1] = target: T1, KDAC6 (Homo sapiens, UniProt Q9UBN7); test: in vitro KDAC1/6 assay, substrate ZMAL; type: biochemical
T1 construct: purchased Enzo Life Sciences
T1 sequence (Q9UBN7 1-1215): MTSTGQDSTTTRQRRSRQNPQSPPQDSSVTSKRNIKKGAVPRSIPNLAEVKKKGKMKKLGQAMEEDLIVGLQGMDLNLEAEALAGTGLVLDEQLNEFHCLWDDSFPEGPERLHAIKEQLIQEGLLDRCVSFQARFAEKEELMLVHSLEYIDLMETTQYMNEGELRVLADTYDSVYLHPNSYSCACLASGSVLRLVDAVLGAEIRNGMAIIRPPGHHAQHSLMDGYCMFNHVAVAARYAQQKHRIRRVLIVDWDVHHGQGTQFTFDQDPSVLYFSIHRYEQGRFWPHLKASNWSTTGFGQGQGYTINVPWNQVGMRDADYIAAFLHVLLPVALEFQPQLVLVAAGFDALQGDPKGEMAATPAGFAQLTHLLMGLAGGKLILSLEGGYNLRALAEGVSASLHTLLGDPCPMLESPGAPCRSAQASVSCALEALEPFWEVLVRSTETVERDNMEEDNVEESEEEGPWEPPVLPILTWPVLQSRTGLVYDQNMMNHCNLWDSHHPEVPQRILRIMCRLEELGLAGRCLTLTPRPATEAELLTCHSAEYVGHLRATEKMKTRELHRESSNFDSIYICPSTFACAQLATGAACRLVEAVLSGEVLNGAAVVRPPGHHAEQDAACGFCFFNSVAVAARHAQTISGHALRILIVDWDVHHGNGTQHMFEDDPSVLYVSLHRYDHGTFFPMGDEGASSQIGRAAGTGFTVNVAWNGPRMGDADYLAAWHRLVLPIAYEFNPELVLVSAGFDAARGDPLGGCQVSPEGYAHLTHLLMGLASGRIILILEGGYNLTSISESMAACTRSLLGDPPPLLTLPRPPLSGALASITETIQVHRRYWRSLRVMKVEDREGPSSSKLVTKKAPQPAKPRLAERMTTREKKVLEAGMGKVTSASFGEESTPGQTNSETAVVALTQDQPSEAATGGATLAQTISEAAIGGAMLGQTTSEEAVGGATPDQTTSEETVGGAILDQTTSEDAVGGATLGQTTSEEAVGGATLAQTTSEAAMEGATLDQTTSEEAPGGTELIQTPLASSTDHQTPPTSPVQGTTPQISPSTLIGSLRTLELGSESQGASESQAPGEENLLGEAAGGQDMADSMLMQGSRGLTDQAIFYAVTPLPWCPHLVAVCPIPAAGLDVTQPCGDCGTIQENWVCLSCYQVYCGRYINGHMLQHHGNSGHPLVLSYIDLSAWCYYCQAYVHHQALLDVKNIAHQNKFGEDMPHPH
Protocol: (§1) 5 times), Fmoc deprotection and amino acid coupling were repeated until the last amino acid was coupled and the Fmoc group was removed. The resin was washed with dichloromethane (DCM, 3 min, 5 times), methanol (5 min, 3 times) and DCM (3 min, 5 times). […]
(§2) acid (TFA) at RT (1 h, 2 times). Cleaved peptide was precipitated with cold diethylether, filtrated and dried. The peptide was purified by semi-preparative HPLC (Merck-Hitachi High Speed LC system) using a Merck Hibar LiChrosorb RP-8 column (250–25 mm, 7 μm). For separation a linear gradient from 20–50% (vol/vol) acetonitrile (ACN) with 0.1% (vol/vol) TFA in 60 min was applied (flow-rate: 8 ml min-1). […]
(§3) high-throughput fluorescence-based assay using the substrate ZMAL (Z-Lys(Acetyl)- […]
(§4) A solution that contained DMSO was used a negative
(§5) The reaction was started through the addition of KDAC1 (Enzo Life Sciences, 10 μL) or […]
(§6) initial state conditions the substrate conversion was adjusted to 10–30% prior to inhibition tests. The reaction was stopped by the addition of a solution containing trypsin and TSA […]
(§7) Then fluorescence intensity of the released fluorophore of the deacetylated lysine derivative was measured in a microplate […]
(§8) reader (BMG Polarstar, Oex 390 nm, Oem 460 nm). The amount of inhibition was determined with respect to the mixture with only DMSO.
(§9) Immunocytochemistry equipment and settings. […]

[2] = target: T2, KDAC1 (Homo sapiens, UniProt Q13547); test: in vitro KDAC1/6 assay, substrate ZMAL; type: biochemical
T2 construct: purchased Enzo Life Sciences
Protocol: as §1, §2, §3, §4, §5, §6, §7, §8, §9

[3] = tested on: acetylation of the microtubule network in HeLa cells; test: immunofluorescence microscopy of acetylated microtubule network; type: cell-based; details: 4 h
Text: Cells were then stained with an anti-acetyl-α-tubulin antibody (Sigma-Aldrich, T6793) and then probed with a secondary Alexa 546 conjugated anti-mouse-antibody (Invitrogen). Nuclei were counterstained with DAPI (4',6-diamidino-2-phenylindole). Coverslips were mounted with FluoroMount (Sigma-Aldrich) and sealed with DPX Mountant (Sigma-Aldrich). Images of the mounted samples were acquired on a Leica DM500 microscope equipped with a Leica DFC 395 FX camera and HBO 100 W lamp[40]. The microscope was run with the Leica Application Suite 4.4.0 software. Chroma UV filter set (No. C40888) and Leica N2.1 filter set (No. 513832) were used for DAPI and Alexa 546 signal acquisition, respectively, with a HCX FL Fluotar 40x/0.75 (dry) objective. Further details about the equipment and the settings that were used to acquire the images are found in the Supplementary Methods section. Unprocessed images are found in Supplementary Fig. 9. […]
Immunocytochemistry equipment and settings. The signal of Alexa 546 and DAPI of the same region were acquired with constant illumination parameters as grayscale 8-bit 600 dpi tiff files (1600u 1200 pixels). Alexa 546 was acquired after 639.1 ms with a gamma factor of 0.65 without multiplying. The gain was set to 1. DAPI-stained images were acquired after about 20 ms with the same parameters as the one for Alexa 546 image acquisition. The temperature in the microscope room was kept at RT. Representative regions of each samples were processed with Adobe Photoshop CS2 to generate images in RGB mode by copying the appropriate original greyscale images to the blue (nuclei, DAPI) and the red (acetylated D-tubulin signal, Alexa 546) channel, respectively. As adjustment, a minimal background subtraction was applied on all images during processing in the same manner. The resolution was changed from 600 dpi (source images) to 450 dpi without resampling (Fig. 7 of the main article). LUT (CLUT) of grayscale images of the acetylated D-tubulin signal and of the DAPI signal are shown in Supplementary Fig. 8. […]

T2 sequence (Q13547 whole entry): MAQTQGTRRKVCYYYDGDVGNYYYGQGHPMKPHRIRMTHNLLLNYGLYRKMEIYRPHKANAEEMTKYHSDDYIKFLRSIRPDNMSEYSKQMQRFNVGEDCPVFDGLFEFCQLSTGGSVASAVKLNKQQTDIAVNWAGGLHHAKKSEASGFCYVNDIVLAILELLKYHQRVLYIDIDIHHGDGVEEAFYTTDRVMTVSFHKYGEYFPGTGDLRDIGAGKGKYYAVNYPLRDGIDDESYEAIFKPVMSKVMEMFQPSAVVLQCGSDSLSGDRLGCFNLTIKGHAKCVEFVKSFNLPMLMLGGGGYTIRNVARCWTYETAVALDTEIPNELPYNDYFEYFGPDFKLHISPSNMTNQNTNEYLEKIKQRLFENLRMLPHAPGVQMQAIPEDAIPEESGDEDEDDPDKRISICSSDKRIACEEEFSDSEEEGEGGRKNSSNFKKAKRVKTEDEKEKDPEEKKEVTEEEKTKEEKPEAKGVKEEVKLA

Q: Which “activity of KDAC6” value [1] does the source give for `Cc1cc(C)nc(SCC(=O)Nc2ncc(Cc3cccc4ccccc34)s2)n1` [SirReal2] here?
A: does not affect; also recorded: not affected

Q: What about the “activity of KDAC1” value [2] of the same molecule?
A: does not affect

Q: And the “acetylation level of the microtubule network” value ([3]; 20 μM)?
A: induces hyperacetylation; also recorded: partial increase; also recorded: hyperacetylation of the microtubule network

Q: What about the “acetylation level of the microtubule network” value ([3]; 50 μM) of the same molecule?
A: induces hyperacetylation
